Consider 8 molecules from paper PMC4515351 (Parasitology, 2014).

Read-outs that look alike come from different tables or passages of the source.

The target in one test is FhGALE (Fasciola hepatica, UniProt A0A3G0ZAV7). It counts as binding. Particulars: for Effect on melting temperature (Tm) of FhGALE: thermal scanning fluorimetry, FhGALE 3.0 µM; for Kd: read-out: apparent dissociation constant (KD,app).
Another test addresses T1, HsGALE (human GALE) (Homo sapiens, UniProt Q14376).
T1 sequence (Q14376 1-348): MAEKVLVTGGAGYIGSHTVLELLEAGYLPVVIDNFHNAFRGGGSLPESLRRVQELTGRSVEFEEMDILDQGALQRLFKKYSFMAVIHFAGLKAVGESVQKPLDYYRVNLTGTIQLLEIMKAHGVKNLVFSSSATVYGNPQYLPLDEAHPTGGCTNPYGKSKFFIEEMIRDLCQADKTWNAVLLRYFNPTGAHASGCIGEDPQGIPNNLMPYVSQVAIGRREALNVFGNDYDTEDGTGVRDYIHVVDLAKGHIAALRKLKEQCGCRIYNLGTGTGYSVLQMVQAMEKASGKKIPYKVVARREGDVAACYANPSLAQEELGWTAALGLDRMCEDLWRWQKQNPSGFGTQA
Description: HsGALE inhibition, coupled enzyme assay with UDP-glucose dehydrogenase. Type of test: biochemical.

The target of test [1] is FhGALE (Fasciola hepatica UDP-galactose 4’-epimerase) (Fasciola hepatica, UniProt A0A3G0ZAV7). Description: biochemical. It counts as biochemical. Particulars: for Selectivity of inhibition, FhGALE versus HsGALE (in words): as judged by respective IC50 values; for IC50 range in words: under the conditions tested, summary of Table 1.
Test [2] deals with UDP-glucose dehydrogenase. The note with it: 100 µM compound, 0.17 mM UDP-glucose, […] NAD+.

As for `NC(=O)c1ccc[n+]([C@@H]2O[C@H](COP(=O)([O-])OP(=O)(O)OC[C@H]3O[C@@H](n4cnc5c(N)ncnc54)[C@H](O)[C@@H]3O)[C@@H](O)[C@H]2O)c1` [NAD^+], the “Effect on melting temperature (Tm) of FhGALE” value (from here on “Effect on melting temperature”) on FhGALE was “no measurable effect”.
For `CC(C)c1nc2c([nH]1)c(=O)n(C)c(=O)n2C` [NSC14303], on HsGALE (human GALE), the concentration for half-maximal inhibition (IC50) (commonly the point on the concentration scale where inhibition reaches its midpoint) came to 0.013 ± 0.006 µM. Also, in test [1], the 50% inhibitory concentration (IC50) was 0.3 ± 0.11 µM; the “Selectivity of inhibition, FhGALE versus HsGALE (in words)” value (“Selectivity of inhibition” below) is listed as “inhibited the human enzyme to a greater extent than the liver fluke one”; the “IC50 range in words” value is listed as “submicromolar”.
The molecule `CC1(C)OC2C(CO)OC(n3cnc4c(=S)nc[nH]c43)C2O1` (centres unmarked) [NSC27305, 9-[6-(hydroxymethyl)-2,2-dimethyltetrahydrofuro[3,4-d][1,3]dioxol-4-yl]-3,9-dihydro-6H-purine-6-thione] showed a 50% inhibitory concentration (IC50) against HsGALE (human GALE) of 0.0061 ± 0.0092 µM. In test [1], the midpoint of inhibition, the IC50, lay at 0.00011 ± 0.00012 µM; the “Selectivity of inhibition” value is on record as “inhibited both enzymes to approximately the same extent”; the “IC50 range in words” value was “sub-nanomolar”.
Take `O=C1NC(=O)C(F)C(C(=O)O)N1` (centres unmarked) [NSC31712, 5-fluoro-2,6-dioxohexahydropyrimidine-4-carboxylate]: at FhGALE, the Kd turned out to be 1900 ± 900 µM and the “Effect on melting temperature” value was “reducing the Tm in a concentration dependent manner”. In test [1], the “Selectivity of inhibition” value was “inhibited FhGALE several orders of magnitude more strongly than HsGALE” and the “IC50 range in words” value is “submicromolar”. The “Selectivity of inhibition” value in test [1] (listed as 5-fluoroorotate) was “selectivity for FhGALE over HsGALE”. For the same molecule, in test [1] (read-out: FhGALE IC50, pH 7.5), the IC50 is 0.03 ± 0.011 µM.
In the case of `Cn1c(=O)c2[nH]c(COc3ccc(C(C)(C)C)cc3)nc2n(C)c1=O` [NSC36525, 8-[(4-tert-butylphenoxy)methyl]-1,3-dimethyl-3,7-dihydro-1H-purine-2,6-dione], the IC50 on HsGALE (human GALE) was found to be 9.5 ± 8.2 µM; in test [1] it was 260 µM. Further, the “Selectivity of inhibition” value in test [1] is given as “inhibited the human enzyme to a greater extent than the liver fluke one”.
Regarding `CCOc1ccc(NC(=O)c2cc3ccccc3cc2O)cc1` [NSC50690, N-(4-ethoxyphenyl)-3-hydroxynaphthalene-2-carboxamide], on HsGALE (human GALE), the IC50 turned out to be 0.045 ± 0.023 µM. Further, in test [1], the IC50 stood at 0.061 ± 0.02 µM; the “Selectivity of inhibition” value was “inhibited both enzymes to approximately the same extent”; the “IC50 range in words” value was “submicromolar”.
As to `COc1cccc(OCC(O)CN2CCN(c3ccccc3)CC2)c1` (centres unmarked) [NSC91378], the “Effect on rate of coupling enzyme UDP-glucose dehydrogenase” value in test [2] is given as “affect the rate”.
`CC(C)CC(NC(=O)OCc1ccccc1)C(=O)NC(Cc1c[nH]c2ccccc12)C(=O)O` (centres unmarked) [NSC335979, (3-(1H–indol-3-yl)-2-[[4-methyl-2-(phenylmethoxycarbonylamino)pentanoyl]amino]propionate)]: at FhGALE, the Kd was found to be 210 ± 20 µM and the “Effect on melting temperature” value is on record as “reducing the Tm in a concentration dependent manner”. For the same molecule, in test [1], the “Selectivity of inhibition” value was “inhibited FhGALE several orders of magnitude more strongly than HsGALE” and the “IC50 range in words” value is reported as “submicromolar”. Also, in test [1] (listed as N-[(benzyloxy)carbonyl]leucyltryptophan), the “Selectivity of inhibition” value is on record as “selectivity for FhGALE over HsGALE”. In addition, the IC50 in test [1] (read-out: FhGALE IC50, pH 7.5) worked out at 0.1 ± 0.046 µM.
